Like-named read-outs stand apart in the source and are kept apart here.

The MRT is a mean duration of stay, worked out from the concentration-time curve. For orientation: Tmax means the time at which the peak concentration occurs. As usually defined, the AUC(0-inf) is the area under the concentration-time curve extrapolated to infinity. One may read the Cmax as the maximum level reached in the sampled fluid or tissue. As a reminder, the half-life is the time in which the quantity being followed falls by half.

This series has as its target T1, Breast cancer resistance protein (BCRP) (Rattus norvegicus, UniProt Q80W57).
T1 construct: from tissue; host or cells: living rat (blood-brain barrier, choroid plexus)
T1 sequence (Q80W57 1-657): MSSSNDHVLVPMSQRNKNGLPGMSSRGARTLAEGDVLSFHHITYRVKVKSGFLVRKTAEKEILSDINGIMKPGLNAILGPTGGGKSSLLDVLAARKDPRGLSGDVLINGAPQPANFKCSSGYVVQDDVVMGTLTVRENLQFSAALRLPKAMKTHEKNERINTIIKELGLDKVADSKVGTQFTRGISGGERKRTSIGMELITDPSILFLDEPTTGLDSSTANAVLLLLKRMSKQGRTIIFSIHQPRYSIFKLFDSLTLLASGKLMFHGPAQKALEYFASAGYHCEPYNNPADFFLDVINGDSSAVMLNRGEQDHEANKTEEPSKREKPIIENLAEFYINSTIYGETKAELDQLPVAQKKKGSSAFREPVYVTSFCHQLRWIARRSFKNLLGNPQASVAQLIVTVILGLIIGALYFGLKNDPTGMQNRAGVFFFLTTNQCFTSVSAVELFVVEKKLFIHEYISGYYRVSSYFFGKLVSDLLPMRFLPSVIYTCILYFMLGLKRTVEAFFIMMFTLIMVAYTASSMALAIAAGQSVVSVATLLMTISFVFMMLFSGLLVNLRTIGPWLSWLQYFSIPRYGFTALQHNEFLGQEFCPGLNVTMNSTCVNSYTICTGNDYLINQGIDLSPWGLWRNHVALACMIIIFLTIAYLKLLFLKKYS
Kind of series: In vivo microdialysis pharmacokinetics of LVFX with BCRP inhibitor Ko143. Conditions: intravenous, with Ko143 15 mg/kg i.p., Ko143 group, Ko143 15 mg/kg i.p. + LVFX 50 mg/kg; for MRT / AUC(0-inf) / Cmax / half-life / AUC(0-t): mean ± SD; for MRT / Tmax / AUC(0-inf) / Cmax / half-life: N=5; for AUC(0-t): N=5, read-out: AUC0–180 (converted). The procedure: On the day of surgery, rats were anesthetized using inhaled isoflurane via a facemask. The rats were placed in a stereotaxic frame (Gene&I), and the body temperature was maintained with a homoeothermic blanket set at 37°C. A midline incision was made to expose the skull. According to the Paxinos and Watson atlas, two microdialysis intracerebral guide cannulae (Eicom Co.) were implanted into the hippocampus CA1 region (Hp‐CA1 coordinates: AP −4.16 mm; ML −2.2 mm; DV −2.9 mm) and lateral ventricle (LV coordinates: AP −1.4 mm; ML +2.2 mm; DV −3.4 mm). Fixed to the skull using a screw and dental cement. After 3 days of recovery, the rats were anesthetized with isoflurane again. An intravascular probe (TP‐100‐20; 20 mm, Eicom Co.) was implanted into the jugular vein toward the right atrium. After the blood microdialysis probe was positioned within the jugular vein, the pipeline was connected to perfuse with ACD solution (citric acid 3.5 mM; sodium citrate 7.5 mM; dextrose 13.6 mM) at a flow rate of […], and the Hamilton microinjection pump was used for continuous perfusion. After stopping isoflurane inhalation, the rats were allowed to wake up naturally on the homoeothermic blanket. The awake rats were placed in a device that allowed them to move freely. Animals were allowed to recover for an additional 24 h.
All microdialysate concentrations (C m) from the hippocampal ECF and lateral ventricle CSF were converted to the unbound drug concentration (C u) at the target site using the following formula: C u = C m/R dial.
A total of 32 rats were randomly divided into the following groups: • Control group, N = 12: vehicle solution + LVFX (50 mg/kg). • TAR group, N = 5: Tariquidar (8 mg/kg) + LVFX (50 mg/kg). • Ko143 group, N = 5: Ko143 (15 mg/kg) + LVFX (50 mg/kg). • MK571 group, N = 5: MK571 (20 mg/kg) + LVFX (50 mg/kg). • PRO group, N = 5: Probenecid (50 mg/kg) + LVFX (50 mg/kg).
Levofloxacin was freshly dissolved in isotonic saline and administered via tail vein injection. Thirty minutes before LVFX administration, the intervention drugs of each group were injected intraperitoneally. To reduce the possible effect of solvents on BBB or BCSFB permeability of LVFX, we prioritized water as the solvent. However, Tariquidar and Ko143 are insoluble in water, and a cosolvent must be used to prepare agents that animals can tolerate. According to the different physicochemical properties of these four inhibitors, the preparation of each transporter inhibitor solution in this experiment was as follows. • P‐glycoprotein (P‐gp) inhibitor Tariquidar[22]: Tariquidar was freshly dissolved in DMSO to 8 mg/ml and then diluted to 4 mg/ml with a solution containing 10% Tween‐80, 25% PEG300, and 65% sterile water. • Breast cancer resistance protein (BCRP) inhibitor Ko143[23]: Ko143 was freshly dissolved in DMSO to 15 mg/ml and then diluted to 7.5 mg/ml with a solution containing 10% Tween‐80, 25% PEG300, and 65% sterile water. • Multidrug resistance‐associated proteins (MRPs) inhibitor MK571[24]: MK571 sodium salt hydrate was dissolved in 1.25% (w/v) aq sodium hydrogen carbonate (NaHCO3) solution to obtain a concentration of 10 mg/ml. • Organic anion transporters (OATs) inhibitor probenecid[25]: Probenecid was dissolved in NaOH (pH = 9.0–9.2) alkalized physiological saline to obtain a concentration of 25 mg/ml.
The pipelines where the blood and brain probes were installed were perfused at the speed of 2 μl/min with ACD solution and ACSF, respectively. Two brain probes were inserted into guide cannulas of the target site and allowed to equilibrate for 1 h. Subsequently, the rats were treated according to their corresponding groups in the device where they could move freely. Microdialyses samples were collected every 15 min using a fraction collector (EFC‐96, Eicom Co.) for 3 h and stored at 4°C until analysis. Finally, rats were anesthetized and decapitated, and their brain was harvested.

The mark [1] stands for this setting: CSF (lateral ventricle microdialysate, unbound), CSF.
[2] abbreviates: brain ECF (hippocampal microdialysate, unbound), 30 min before LVFX, brain ECF.

As to `C[C@H]1COc2c(N3CCN(C)CC3)c(F)cc3c(=O)c(C(=O)O)cn1c23` [LVFX, Levofloxacin], for the setting “CSF (lateral ventricle microdialysate, unbound), 30 min before LVFX, CSF”, the MRT is 69.6 min. Under setting [1], the time to peak (Tmax) is 15 min, the area under the curve AUC(0-inf) was 4940 ng·h/mL, the maximum concentration (Cmax) was found to be 4260 ± 320 ng/mL and the half-life came to 41.8 ± 6.9 min. Besides, under setting [1], the AUC(0-t) was 4650 ng·h/mL. Under setting [2], the time of peak concentration (Tmax) is 15 min, the total exposure AUC(0-inf) is 4650 ng·h/mL, the maximum concentration (Cmax) was 3710 ± 250 ng/mL and the MRT was 75.5 min. Under setting [2], the half-life amounted to 44.4 ± 10.4 min and the AUC(0-t) is 4280 ng·h/mL. Besides, for the setting “30 min before LVFX, blood”, the Tmax is 15 min, the AUC(0-inf) is 11900 ng·h/mL, the Cmax turned out to be 11000 ± 770 ng/mL and the MRT was 67.7 min. For the same compound, under “30 min before LVFX, blood”, the half-life was found to be 42.8 ± 7.7 min and the AUC(0-t) is 11100 ng·h/mL.

Source of the values: article PMC9804084, “Multiple drug transporters contribute to the brain transfer of levofloxacin” (CNS Neuroscience & Therapeutics, 2022).
